The text below walks through data of ChEMBL document CHEMBL1201862, “PubChem BioAssay data set” (2004).

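Interpolation was linear, between the two tested concentrations surrounding the appropriate level; five concentrations were tested over 48 hours in 96-well plates. The concentration for 50% growth inhibition is given as GI50.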 Calls of active or inactive are those of the source. Cut-off read from the data, not from the text of the source: active = GI50 up to about 1.1 µM and inactive = higher.

Some test systems named below: HOP-62; MOLT-4; SK-OV-3; SF-295; TK-10; K562; EKVX; SR; NCI-H23; NCI-H460; OVCAR-8; IGROV-1; ACHN; SF-539; SN12C; RPMI-8226; RXF 393.
Holding throughout (experiment): growth of human tumour cells (NCI), 48 h

Turning to `COc1ccccc1NC(=O)C1=C(C)NC(C)=C(C(=O)Nc2ccccc2OC)C1c1ccccc1Cl`, the GI50 was > 100 µM (inactive) with HOP-62; 27.2 µM (inactive) in the test on MOLT-4; > 100 µM (inactive) with SK-OV-3; > 100 µM (inactive) in the test with SF-295; > 100 µM (inactive) in the test on TK-10; 32.7 µM (inactive) in the test with K562. The GI50 in the test with EKVX was 53.5 µM (inactive); with SR it was 36.6 µM (inactive); in the test on NCI-H23, > 100 µM (inactive); in the test with NCI-H460, 59.3 µM (inactive); in the test on OVCAR-8, > 100 µM (inactive); in the test on IGROV-1, > 100 µM (inactive). The GI50 in the test on ACHN is 55.7 µM (inactive); with SF-539 it was 26.1 µM (inactive); in the test with SN12C, > 100 µM (inactive); with RPMI-8226, 30.7 µM (inactive).
With `CC(C)(C)C1C=C(Sc2ccccc2)C(=O)O1` (centres undefined), the GI50 with HOP-62 is 45.4 µM (inactive); with MOLT-4, 30.3 µM (inactive); in the test on SK-OV-3, 58.9 µM (inactive); with SF-295, 35.2 µM (inactive); with TK-10 it was 60.5 µM (inactive); in the test with K562, 49.3 µM (inactive). The GI50 with EKVX is 47 µM (inactive); in the test with NCI-H23, 33.5 µM (inactive); in the test on NCI-H460 it was 40.4 µM (inactive); with OVCAR-8, 37.3 µM (inactive); in the test on IGROV-1, 48.9 µM (inactive); in the test on ACHN, 32.1 µM (inactive). The results for the GI50 with SF-539, in the test with SN12C and in the test with RPMI-8226 were 44.1 µM (inactive), 36.2 µM (inactive) and 36 µM (inactive), respectively.
For the molecule `COc1ccc(N2C(=O)/C(=C(\C)c3cc4ccccc4oc3=O)N=C2c2cc([N+](=O)[O-])ccc2Cl)cc1`, the GI50 was > 100 µM (inactive) in the test on HOP-62; 29.7 µM (inactive) in the test with MOLT-4; 57.7 µM (inactive) in the test with SK-OV-3; 17.1 µM (inactive) in the test with SF-295; 10.8 µM (inactive) in the test with K562; > 100 µM (inactive) in the test on EKVX. Besides, the GI50 is 34.4 µM (inactive) with SR; 11.2 µM (inactive) in the test with NCI-H23; 41.9 µM (inactive) with NCI-H460; > 100 µM (inactive) with OVCAR-8; 43.3 µM (inactive) in the test with IGROV-1; 32.1 µM (inactive) with ACHN. The GI50 is 29.9 µM (inactive) with SF-539, 35 µM (inactive) in the test on SN12C and 26.5 µM (inactive) in the test with RPMI-8226.
`C/N=c1/ss/c(=N\C(SC)=[N+](C)C)n1C.[O-][Cl+3]([O-])([O-])[O-]`: the GI50 was > 100 µM (inactive) in the test on HOP-62; 21.1 µM (inactive) in the test with MOLT-4; > 100 µM (inactive) with SK-OV-3; > 100 µM (inactive) in the test with SF-295; > 100 µM (inactive) with TK-10; 17.3 µM (inactive) with K562. In addition, the GI50 was 80.7 µM (inactive) in the test with EKVX; > 100 µM (inactive) with SR; > 100 µM (inactive) in the test on NCI-H23; 4.09 µM (inactive) in the test on NCI-H460; > 100 µM (inactive) in the test with OVCAR-8; > 100 µM (inactive) in the test with IGROV-1. Also, the GI50 in the test on ACHN, in the test on SN12C and in the test on RXF 393 was > 100 µM (inactive) throughout.
For the molecule `C/C(=N/NS(=O)(=O)c1c(C)cc(C)cc1C)c1cccc[n+]1[O-]`, the GI50 in the test on HOP-62, with MOLT-4, in the test on SK-OV-3, with SF-295, in the test with TK-10 and with K562 was > 100 µM (inactive) in each case. The GI50 in the test on EKVX, with SR, with NCI-H23, with NCI-H460, with OVCAR-8 and in the test on IGROV-1 was > 100 µM (inactive) each time. Besides, the GI50 in the test on ACHN, in the test with SF-539, with SN12C and in the test on RPMI-8226 was > 100 µM (inactive) in each case.
Consider `O=C1C=CC(=O)C12CCc1ccccc12`, for which the GI50 in the test on HOP-62 was > 100 µM (inactive); in the test on MOLT-4 it was > 44.3 µM (inactive); in the test on SK-OV-3 it was > 100 µM (inactive); in the test with SF-295 it was > 31.6 µM (inactive); in the test with TK-10 it was > 100 µM (inactive); with K562, 36.4 µM (inactive). Further, the GI50 with EKVX, in the test on NCI-H23, in the test on NCI-H460, in the test with OVCAR-8, in the test on IGROV-1 and in the test on ACHN was > 100 µM (inactive) throughout. The GI50 was > 100 µM (inactive) in the test with SF-539, > 100 µM (inactive) in the test on SN12C, > 94.6 µM (inactive) with RXF 393 and 12.1 µM (inactive) with RPMI-8226.
Turning to `Cc1ccc(C(=O)N2c3ccccc3N(C)n3cccc3C2CC(=O)O)cc1` (centres undefined), the GI50 with HOP-62, with MOLT-4, with SF-295, in the test on TK-10, in the test with K562 and in the test on EKVX was > 100 µM (inactive) in each case. The GI50 in the test with NCI-H23, in the test with NCI-H460, in the test with OVCAR-8, in the test on IGROV-1, in the test on ACHN and in the test on SF-539 was > 100 µM (inactive) throughout. The GI50 in the test on SN12C, with RXF 393 and in the test with RPMI-8226 was > 100 µM (inactive) each time.
With `CCOC(=O)C1=C(Nc2ccc(Cl)cc2Cl)OCC1=O`, the GI50 in the test on HOP-62, in the test with MOLT-4, in the test on SK-OV-3, in the test with SF-295, in the test with TK-10 and with K562 was > 100 µM (inactive) each time. The GI50 in the test with SR, in the test on NCI-H23, with NCI-H460, in the test with OVCAR-8, with IGROV-1 and in the test on ACHN was > 100 µM (inactive) throughout. Also, the GI50 in the test on SF-539, in the test with SN12C and with RPMI-8226 was > 100 µM (inactive) in each case.
As for `CC1CCCC2(O1)OC1CC(=O)OC1C1=C2C(=O)c2ccccc2C1=O` (centres undefined), the GI50 with HOP-62 is 16.4 µM (inactive); in the test with MOLT-4, 1.58 µM (inactive); with SK-OV-3 it was 16.4 µM (inactive); with SF-295 it was 17.6 µM (inactive); in the test with TK-10, 9.12 µM (inactive); with K562, 0.63 µM (active). In addition, the GI50 was 3.87 µM (inactive) in the test on EKVX; 5.13 µM (inactive) with NCI-H23; 25.9 µM (inactive) in the test with NCI-H460; 2.51 µM (inactive) in the test on OVCAR-8; 2.65 µM (inactive) in the test on IGROV-1; 4.39 µM (inactive) in the test on ACHN. For the same molecule, the GI50 in the test with SF-539 is 5.81 µM (inactive); in the test on SN12C it was 2.18 µM (inactive); in the test on RXF 393, 2.13 µM (inactive); in the test on RPMI-8226, 1.22 µM (inactive).
